Measured values from US12643887B2, “Heterocyclic derivatives with cardiomyocyte proliferation activity for treatment of heart diseases” (Tongji University, priority 2019, dated 2026).

Columns and labels:
[1] = system: Neonatal Rat Ventricular Myocytes (NRVMs); assay: Myocyte proliferation assay (EdU assay) in neonatal rat ventricular myocytes; assay type: cell-based; conditions: growth relative to blank myocyte growth without compound added; for Avg 1 uM (average myocyte proliferation): compound 1 uM; for Avg 3 uM (average myocyte proliferation): compound 3 uM; for Avg 10 uM (average myocyte proliferation): compound 10 uM
Method: 1. Isolation of and Culture Neonatal Rat Ventricular Myocytes (NRVMs)
Ventricles from neonatal rats were separated from the atria, cut into small pieces (about 2×2 mm^2) and then dissociated in Ca2+-free HBSS containing 0.125 mg ml-1 trypsin (Gibco), 10 μg ml-1 DNase II (Sigma) and 0.1 mg ml-1 collagenase type IV (Sigma). The digestion was carried out under constant stirring at 37° C. for 5 min. The supernatant was collected with FBS (Gibco) after each digestion period. After digestion, the collected supernatant was centrifuged at 1000 g for 10 min at room temperature, and then cell pellets were resuspended in DMEM (Gibco) supplemented with 10% FBS and with 100 uM 5-bromo-2′-deoxyuridine (Sigma). The resuspended cells were passed through a cell strainer ([…], BD Falcon) and seeded onto 100-mm plastic dishes for 2 h at 37° C. in a 5% CO2 to remove fibroblasts, the supernatant was then collected and plated onto 1% gelatin (Sigma)-coated dishes. 24 h after the seeding, the medium was changed to DMEM (Gibco) containing 2% FBS (Gibco), 1% insulin-transferrin-selenium (ITS; Gibco), 1% Penicillin-Streptomycin (Gibco). After 24 hours of low serum culture, remove the medium with DMEM (Gibco) containing 6% FBS (Gibco), 1% insulin-transferrin-selenium (ITS; Gibco), 1% Penicillin-Streptomycin (Gibco), different concentrations of compounds (the compounds were pre-diluted in the medium and the drug concentration was 10 uM, 3 uM, 1 uM, fully mixed). After 36 h add Edu substrate (Invitrogen) according to the manufacturer's guidelines, and then after 12 h cell can be used.
• 2.1. Immobilization: Remove the medium and fix the cells with […] in 200 ul (whichever is covered) for 15 min and wash the cells twice with 500 ul of PBS for 5 min each time. • 2.2. Broken membrane: Add 200 ul of 0.3% Triton-X 100 (diluted in PBS) to each well, incubate for 10-15 min at room temperature (the time should not be too long), and wash the cells twice with 500 ul of PBS for 5 min each time. • 2.3. Blocking: Add 200 ul of 10% normal goat serum (diluted with 0.1% PBST) to each well, incubate for 1 h at room temperature, and wash twice with 500 ul of 0.1% PBST for 5 min each time. • 2.4. Primary antibody: dilute the primary antibody (abcam, ab8295) to blocking solution at a ratio of 1:200, add 100 ul per well, incubate for 1 h at room temperature (may be slightly longer than 2-3 h), wash the cells twice with 500 ul 0.1% PBST for 5 min each time. • 2.5. Secondary antibody: Dilute the fluorescently labeled secondary antibody (abcam, ab150117) into blocking solution at a ratio of 1:200, add 100 ul per well, incubate for 1 h at room temperature (the time should not be too long), wash the cells twice with 0.1% PBST for 5 min each time, pay attention to the whole process. Protected from light. • 2.6. Edu staining (Invitrogen C10338) • 2.6.1 Prepare Click-iT® reaction cocktail according to Table 3. It was important to add the ingredients in the order listed in the table; otherwise, the reaction would not proceed optimally. Use the Click-iT® reaction cocktail within 15 minutes of preparation.
• 2.6.2 Add 0.1 mL of Click-iT® reaction cocktail to each well containing a coverslip. Rock the plate briefly to ensure that the reaction cocktail is distributed evenly over the coverslip. • 2.6.3 Incubate the plate for 30 minutes at room temperature, protected from light. • 2.6.4 Remove the reaction cocktail, then wash the cells twice with 0.1% PBST for 5 min each time. • 2.7. DAPI staining: DAPI stain was diluted to PBS at a ratio of 1:1000, 100 ul per well, incubated for 30 min at room temperature, and the cells were washed twice with PBS for 5 min each. 3. Data Analysis
We used Molecular Devices' Image Xpress Micro Confocal for high-throughput photo and data analysis.

[2] = molecular target: T1, human CLK1 (Homo sapiens, UniProt P49759); assay: CLK1 enzyme assay (ADP-Glo); assay type: biochemical; conditions: ADP-Glo, ATP 10 μM; read-out: CLK1 IC50
T1 construct: Recombinant human CLK1 (129-end); GST (N); purchased SignalChem C57-11G; host or cells: Sf9 insect cells
T1 sequence (P49759 129-484 limits assumed): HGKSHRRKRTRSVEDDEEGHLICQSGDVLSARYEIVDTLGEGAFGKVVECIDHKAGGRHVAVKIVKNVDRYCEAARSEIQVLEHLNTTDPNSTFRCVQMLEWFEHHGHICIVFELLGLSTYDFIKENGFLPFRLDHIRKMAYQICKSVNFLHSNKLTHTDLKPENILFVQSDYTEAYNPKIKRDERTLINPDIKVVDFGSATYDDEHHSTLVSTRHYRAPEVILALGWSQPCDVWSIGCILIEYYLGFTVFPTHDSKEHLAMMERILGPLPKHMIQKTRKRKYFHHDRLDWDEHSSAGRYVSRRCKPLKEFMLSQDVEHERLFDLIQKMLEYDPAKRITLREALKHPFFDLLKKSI
Method: The ability of compounds to inhibit human CLK1 kinase activities was determined using a commercially available ADP-Glo™ Kinase Assay kit (Promega, Cat #V9102) according to the manufacturer's protocol.
Recombinant human CLK1 (129-end) (expressed in Sf9 insect cells with an N-terminal GST tag) was purchased from SignalChem (Cat #C57-11G). Recombinant full length human MBP (expressed in E. Coli cells with an N-terminal GST tag.) was purchased from SignalChem (Cat #M42-54G). This assay, run in a 384-well plate format, is a generic method for measuring kinase activities using an ADP-Glo Kinase Assay Kit. The basic assay procedure involves two steps: (1) Enzymatic step: inhibitors are incubated with the kinase and then ATP (included in the ADP-Glo Kinase Assay Kit) and the MBP protein are added to start the enzymatic reaction; (2) Detection step: after the kinase reaction, first ADP-Glo™ Reagent is added to terminate the kinase reaction and deplete the remaining ATP. Second, the Kinase Detection Reagent is added to simultaneously convert ADP to ATP and allow the newly synthesized ATP to be measured using a luciferase/luciferin reaction. The light generated is measured using a luminometer.
Briefly, CLK1 (16 nM) in the enzymatic buffer solutions (40 mM Tris, pH 7.5, 20 mM MgCl2, 0.1 mg/ml BSA, 50 μM DTT) were mixed with various concentrations of inhibitors (dissolved in 100% DMSO). These solutions were incubated for 30 minutes at 25° C., and subsequently a mixture of substrate peptide and ATP was added with the final peptide and ATP concentrations at 2 μM and 10 μM, respectively. The final reaction mixture of enzyme-substrate-ATP-compound was incubated for 60 minutes at 25° C.
Afterwards ADP-Glo™ Reagent was added and the mixture was incubated at 25° C. for 60 minutes. Then Kinase Detection Reagent was added and the final mixture was incubated at 25° C. for 60 minutes. The luminescence signal of the final solution was measured on an Envision instrument (PerkinElmer). The percent (%) inhibition at each concentration of a compound is calculated relative to the luminescence signal in the Max and Min control wells contained within each assay plate. […] The concentrations and percent inhibition values for a test compound are plotted and the concentration of the compound required to achieve 50% inhibition (IC50) is determined with a four-parameter logistic dose response equation.

SMILES	Avg 1 uM (average myocyte proliferation) [1]	Avg 3 uM (average myocyte proliferation) [1]	Avg 10 uM (average myocyte proliferation) [1]	IC50 [2]
O=C1NC(NCc2ccccc2)=N/C1=C\c1ccc2ncsc2c1 [Example 31, (Z)-5-(benzo[d]thiazol-6-ylmethylene)-2-(benzylamino)-3,5-dihydro-4H-imidazol-4-one]	** (10%-50%)	** (10%-50%)		
COc1ccc(N(C)C2=N/C(=C\c3ccc4ncsc4c3)C(=O)N2)cc1 [Example 38, (Z)-5-(benzo[d]thiazol-6-ylmethylene)-2-((4-methoxyphenyl)(methyl)amino)-3,5-dihydro-4H-imidazol-4-one]	*** (>50%)	** (10%-50%)	*** (>50%)	0.1 to 1 µM
O=C1NC(Nc2ccc3ncsc3c2)=N/C1=C\c1ccc2cc[nH]c2c1 [Example 63, (Z)-5-((1H-indol-6-yl)methylene)-2-(benzo[d]thiazol-6-ylamino)-3,5-dihydro-4H-imidazol-4-one]	* (<10% growth relative to blank myocyte growth without compound added.)	* (<10% growth relative to blank myocyte growth without compound added.)		> 10 µM
Cn1ncc2ccc(/C=C3\N=C(Nc4ccc5ncsc5c4)NC3=O)cc21 [Example 80, (Z)-2-(benzo[d]thiazol-6-ylamino)-5-((1-methyl-1H-indazol-6-yl)methylene)-3,5-dihydro-4H-imidazol-4-one]	* (<10% growth relative to blank myocyte growth without compound added.)	* (<10% growth relative to blank myocyte growth without compound added.)		> 10 µM
CN(CC1CC1)C1=N/C(=C\c2ccc3ncsc3c2)C(=O)N1 [Example 33, (Z)-5-(benzo[d]thiazol-6-ylmethylene)-2-((cyclopropylmethyl)(methyl)amino)-3,5-dihydro-4H-imidazol-4-one]	* (<10% growth relative to blank myocyte growth without compound added.)	* (<10% growth relative to blank myocyte growth without compound added.)		0.1 to 1 µM
O=C1NC(NCCN2CCOCC2)=N/C1=C\c1ccc2ncsc2c1 [Example 29, (Z)-5-(benzo[d]thiazol-6-ylmethylene)-2-((2-morpholinoethyl)amino)-3,5-dihydro-4H-imidazol-4-one]	** (10%-50%)	* (<10% growth relative to blank myocyte growth without compound added.)	*** (>50%)	0.1 to 1 µM
CN(C1=N/C(=C\c2ccc3ncsc3c2)C(=O)N1)c1ccc(Cl)cc1 [Example 24, (Z)-5-(benzo[d]thiazol-6-ylmethylene)-2-((4-chlorophenyl)(methyl)amino)-3,5-dihydro-4H-imidazol-4-one]	* (<10% growth relative to blank myocyte growth without compound added.)	* (<10% growth relative to blank myocyte growth without compound added.)	* (<10% growth relative to blank myocyte growth without compound added.)	0.1 to 1 µM
O=C1NC(NCC2CC2)=N/C1=C\c1ccc2ncsc2c1 [Example 34, (Z)-5-(benzo[d]thiazol-6-ylmethylene)-2-((cyclopropylmethyl)amino)-3,5-dihydro-4H-imidazol-4-one]	** (10%-50%)	*** (>50%)		
